Where a name gives a salt, the structure may show the parent alone.
Tested on: diabetic GK rats
Assay: Modulation of glucose levels (glycaemia and oral glucose tolerance test) in diabetic GK rats
Type: in vivo, rat
Conditions: for % variation vs control (glycaemia after 4 days of treatment) / Glycaemia after 4 days of treatment: PO bid for 4 days, alone or combined; for Glycaemia before treatment: baseline before treatment
Protocol: Biological Test: Modulation of Glucose Levels with the Combinations of the Invention with Insulin Sensitisers
The capacity of the compounds of the invention in combination with insulin-sensitising antidiabetic compounds to modify the blood glucose levels is evaluated in vivo in diabetic GK rats.
Alone or in combination, the antidiabetic agents are administered twice a day (bid) to the GK rats for 4 days. The oral glucose tolerance test (OGTT) is performed after the last day of treatment.
OGTT is performed in the morning after 3 hours of fasting by oral administration of a glucose charge of 2 g/kg of body mass. The blood samples are collected from the tail vein at 0; 10; 20; 30; 45; 60; 90 and 120 minutes to determine the glucose levels.
The two compounds were administered alone and in combination. The doses used for the hydrochloride salt of (+)-2-amino-3,6-dihydro-4-dimethylamino-6-methyl-1,3,5-triazine were 50 and 100 mg/kg PO twice daily for 4 days.

[1] = GK rats, triazine salt 100 mg/kg, rosiglitazone 5 mg/kg

| Structure (SMILES) | fasted plasmatic glucose level (GK rats, 4 days, rosiglitazone 5 mg/kg, triazine salt 100 mg/kg) | glucose tolerance, compared with rosiglitazone (GK rats, OGTT, triazine salt 100 mg/kg vs rosiglitazone 5 mg/kg) | % variation vs control (glycaemia after 4 days of treatment) [1] | Glycaemia after 4 days of treatment [1] | Glycaemia before treatment (GK rats) | % decrease in AUC vs control (OGTT after 4 days of treatment PO bid, triazine salt 100 mg/kg, rosiglitazone 5 mg/kg) | Glycaemia R under the curve (AUC) (OGTT, glucose 2 g/kg oral after 3 h fasting, 0-120 min, after 4 days of treatment PO bid, triazine salt 100 mg/kg, rosiglitazone 5 mg/kg) |
| --- | --- | --- | --- | --- | --- | --- | --- |
| CC1N=C(N)NC(N(C)C)=N1 (single isomer, unassigned; (+)) [(+)-2-amino-3,6-dihydro-4-dimethylamino-6-methyl-1,3,5-triazine hydrochloride] | induced a decrease | better glucose tolerance | −16% | 11.01 ± 0.37 mmol/L | 12.95 ± 0.41 mmol/L | −19.6% | 2688 +/− 99 |
| CN(CCOc1ccc(CC2SC(=O)NC2=O)cc1)c1ccccn1 (stereo not shown) [Rosiglitazone, rosiglitazone, reference compound] | – | – | −19.7% | 10.52 ± 0.84 mmol/L | 12.81 ± 0.27 mmol/L | – | – |
